These compounds were tested against T1, human TSHR (Homo sapiens, UniProt P16473) (assay: Antagonist activity using TSH-induced cAMP generation in human TSHR-stably expressing CHO cells). Details: human TSH 50 ng/mL.
T1 construct: expressed in transfected cells
Type: cell-based
Procedure: Measurement of antagonist activity using TSH-induced cAMP generation in human TSHR-stably expressing CHO cells as an indicator
The gene sequence (reference number: NM_000369.2) of a human TSHR was inserted into multiple cloning sites of pcDNA3.1 (+). Prepared plasmid vectors were introduced into CHO cells using a lipofection method, and human TSHR-stably expressing CHO cells were established. Obtained cells were seeded in a 96-well poly-D-lysine-coated plate at 5 × 10^4 cells/well and cultured in an F12 culture medium containing 10%FBS, 400 µg/mL of G418, 50 U/mL of penicillin, and 50 µg/mL of streptomycin under conditions of 37°C and 5% CO2 for one day. After the culture medium was removed, the cells were washed twice with 100 µL of an assay buffer solution (Hanks' Balanced Salt Solution containing 20 mM HEPES and 1 mM IBMX) per well. 30 µL of a test compound-containing assay buffer solution was added to the well and incubated at room temperature for 15 minutes. Next, 30 µL of an assay buffer solution containing human TSH (final concentration: 50 ng/mL, R&D Systems, Inc.) was added thereto and incubated at 37°C for one hour. A supernatant was removed, a Lysis and Detection Buffer 2(Cisbio) was added thereto, and the mixture was incubated at room temperature for one hour to prepare a cell lysate. According to the instruction manual of a cAMP Gs HiRange kit (Cisbio), the cell lysate, d2-labeled cAMP, and anti-cAMP Europium Cryptate labeled antibodies (Cisbio) were reacted together in a 384-well white microplate. Next, fluorescence intensity ratios (measurement wavelengths: 665 nm/620 nm) were measured using a multi-plate reader (PHERAstar FSX, BMG LABTECH, Japan). The fluorescence intensity ratio of each sample was converted to a cAMP content using a standard curve. The cAMP content was converted as a percentage of the control value to calculate a cAMP generation rate. The cAMP generation rates were plotted against the test compound concentrations using Prism (Graph Pad Software Inc.) to calculate IC50 values. The IC50's of the individual test compounds are shown in the above tables. In the tables, IC50 < 0.3 µM was denoted as A, and 0.3 µM ≤ IC50 < 30 µM was denoted as B. Cases where the IC50 values were not calculated for test compounds from which activity was recognized are denoted as C.

T1 sequence (P16473 21-764): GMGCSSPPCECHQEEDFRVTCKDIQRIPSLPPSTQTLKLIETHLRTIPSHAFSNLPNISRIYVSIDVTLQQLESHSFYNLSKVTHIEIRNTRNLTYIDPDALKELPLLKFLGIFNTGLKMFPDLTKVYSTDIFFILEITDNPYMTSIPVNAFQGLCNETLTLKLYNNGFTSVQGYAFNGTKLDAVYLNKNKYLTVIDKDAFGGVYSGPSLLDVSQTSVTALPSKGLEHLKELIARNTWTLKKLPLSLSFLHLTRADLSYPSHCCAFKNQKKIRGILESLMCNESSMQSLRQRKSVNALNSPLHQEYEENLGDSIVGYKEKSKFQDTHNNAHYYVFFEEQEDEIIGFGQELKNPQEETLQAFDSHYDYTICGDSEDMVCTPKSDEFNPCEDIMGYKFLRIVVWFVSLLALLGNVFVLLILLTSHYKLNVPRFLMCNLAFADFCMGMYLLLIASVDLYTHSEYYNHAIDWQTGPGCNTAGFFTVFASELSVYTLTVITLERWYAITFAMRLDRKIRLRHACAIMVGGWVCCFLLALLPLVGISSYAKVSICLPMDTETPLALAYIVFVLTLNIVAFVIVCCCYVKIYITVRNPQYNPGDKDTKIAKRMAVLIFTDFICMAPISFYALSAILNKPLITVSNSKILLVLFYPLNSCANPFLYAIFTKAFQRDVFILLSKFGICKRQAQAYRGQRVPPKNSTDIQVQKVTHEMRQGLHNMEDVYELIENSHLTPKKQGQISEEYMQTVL

First: NC(=O)NCc1ncccc1-c1ccc(NC(=O)C2CC(F)(F)C2)c(F)c1Cc1ccccc1F [Example G-4, 3,3-Difluoro-N-(2-fluoro-3-(2-fluorobenzyl)-4-(2-(ureidomethyl)pyridin-3-yl)phenyl)cyclobutane-1-carboxamide]
Second: NC(=O)NCc1ncccc1-c1ccc(NC(=O)C2CC2)c(F)c1Cc1ccccc1F [Example G-3, N-(2-Fluoro-3-(2-fluorobenzyl)-4-(2-(ureidomethyl)pyridin-3-yl)phenyl)cyclopropanecarboxamide]
The IC50 of the first is lower: less than 300 nM for the first, 300 to 30000 nM for the second.

N#CC1(COC(=O)Nc2ccc(-c3cccnc3CNC(N)=O)c(Cc3ccccc3F)c2F)CC1 [Example A-8] and NC(=O)NCc1ncccc1-c1ccc(NC(=O)OCC2CC2)c(F)c1Cc1ccccc1F [Example A-31, Cyclopropylmethyl (2-fluoro-3-(2-fluorobenzyl)-4-(2-(ureidomethyl)pyridin-3-yl)phenyl)carbamate] cannot be ordered by IC50: less than 300 nM for the first, less than 300 nM for the second.

C[C@@H](OC(=O)Nc1ccc(-c2ccnnc2CCC(N)=O)c(Cc2ccccc2F)c1F)C1CC1 [Example C-6, (R)-1-Cyclopropylethyl (4-(3-(3-amino-3-oxopropyl)pyridazin-4-yl)-2-fluoro-3-(2-fluorobenzyl)phenyl)carbamate] and NC(=O)CCc1nnccc1-c1ccc(NC(=O)OC2CC(F)(F)C2)c(F)c1Cc1ccccc1F [Example C-8] cannot be ordered by IC50: less than 300 nM for the first, less than 300 nM for the second.

Compared with CC(C)(C)OC(=O)Nc1ccc(-c2ccnnc2CCC(N)=O)c(Cc2ccccc2F)c1F [Example C-4, tert-Butyl (4-(3-(3-amino-3-oxopropyl)pyridazin-4-yl)-2-fluoro-3-(2-fluorobenzyl)phenyl)carbamate], NC(=O)CCc1nnccc1-c1ccc(NC(=O)O[C@H]2C[C@H](F)C2)c(F)c1Cc1ccccc1F [Example C-7, trans-3-Fluorocyclobutyl (4-(3-(3-amino-3-oxopropyl)pyridazin-4-yl)-2-fluoro-3-(2-fluorobenzyl)phenyl)carbamate] is higher in IC50: less than 300 nM for the first, 300 to 30000 nM for the second.

First: CC(C)(C)OC(=O)Nc1ccc(-c2cccnc2CCC(N)=O)c(Cc2ccccc2S(C)(=O)=O)c1F [Example A-40, tert-Butyl (4-(2-(3-amino-3-oxopropyl)pyridin-3-yl)-2-fluoro-3-(2-(methylsulfonyl)benzyl)phenyl)carbamate]
Second: CC(C)(C)OC(=O)Nc1ccc(-c2cccnc2CCC(N)=O)c(Cc2ccccc2C#N)c1F [Example A-39, tert-Butyl (4-(2-(3-amino-3-oxopropyl)pyridin-3-yl)-3-(2-cyanobenzyl)-2-fluorophenyl)carbamate]
The IC50 of the first is higher: 300 to 30000 nM for the first, less than 300 nM for the second. The second is the more potent here.

CC(C)(C)OC(=O)Nc1ccc(-c2cccnc2CNC(N)=O)c(Oc2ccccc2F)c1F [Example B-2, tert-Butyl (2-fluoro-3-(2-fluorophenoxy)-4-(2-(ureidomethyl)pyridin-3-yl)phenyl)carbamate] and NC(=O)NCc1ncccc1-c1ccc(NC(=O)OCC2CC(F)(F)C2)c(F)c1Oc1ccccc1F [Example B-4] cannot be ordered by IC50: less than 300 nM for the first, less than 300 nM for the second.

C[C@H](OC(=O)Nc1ccc(-c2ccnnc2CNC(N)=O)c(Cc2ccccc2F)c1F)C(F)(F)F [Example C-2, (S)-1,1,1-Trifluoropropan-2-yl (2-fluoro-3-(2-fluorobenzyl)-4-(3-(ureidomethyl)pyridazin-4-yl)phenyl)carbamate] and C[C@@H](OC(=O)Nc1ccc(-c2cccnc2CNC(N)=O)c(Cc2ccccc2F)c1F)C(F)(F)F [Example A-24] cannot be ordered by IC50: less than 300 nM for the first, less than 300 nM for the second.

Compared with CC(C)(C)OC(=O)Nc1ccc(-c2cccnc2CNC(N)=O)c(Cc2ccccc2C#N)c1F [Example A-2, tert-Butyl (3-(2-cyanobenzyl)-2-fluoro-4-(2-(ureidomethyl)pyridin-3-yl)phenyl)carbamate], CC(C)(C)OC(=O)Nc1ccc(-c2cccnc2CNC(N)=O)c(Cc2ccc(F)cc2)c1F [Example A-16] is lower in IC50: 300 to 30000 nM for the first, less than 300 nM for the second. The second is the more potent here.

NC(=O)CCc1ncccc1-c1ccc(NC(=O)OCC2CC(F)(F)C2)c(F)c1C(=O)c1ccccc1F [Example E-7] and NC(=O)NCc1ncccc1-c1ccc(NC(=O)OC[C@H]2C[C@@H]2F)c(F)c1Cc1ccccc1F (relative stereo) [Example A-32] cannot be ordered by IC50: less than 300 nM for the first, less than 300 nM for the second.

NC(=O)NCc1ncccc1-c1ccc(NC(=O)N2CC3(CCC3)C2)c(F)c1Cc1ccccc1F [Example G-7, N-(2-Fluoro-3-(2-fluorobenzyl)-4-(2-(ureidomethyl)pyridin-3-yl)phenyl)-2-azaspiro[3.3]heptane-2-carboxamide] and NC(=O)NCc1ncccc1-c1ccc(NC(=O)NC2CCCC2)c(F)c1Cc1ccccc1F [Example G-8, 1-Cyclopentyl-3-(2-fluoro-3-(2-fluorobenzyl)-4-(2-(ureidomethyl)pyridin-3-yl)phenyl)urea] cannot be ordered by IC50: less than 300 nM for the first, less than 300 nM for the second.

CC(C)(C)OC(=O)Nc1ccc(-c2cccnc2CCC(N)=O)c(Cc2ncccc2F)c1F [Example F-2, tert-Butyl (4-(2-(3-amino-3-oxopropyl)pyridin-3-yl)-2-fluoro-3-((3-fluoropyridin-2-yl)methyl)phenyl)carbamate] and CC(C)(C)OC(=O)Nc1ccc(-c2cccnc2CNC(N)=O)c(Cc2ncccc2F)c1F [Example F-1, tert-Butyl (2-fluoro-3-((3-fluoropyridin-2-yl)methyl)-4-(2-(ureidomethyl)pyridin-3-yl)phenyl)carbamate] fall in the same range of IC50: 300 to 30000 nM for the first, 300 to 30000 nM for the second.

Compared with CC(C)(C)OC(=O)Nc1ccc(-c2nccnc2CCC(N)=O)c(Cc2ccccc2)c1F [Example H-1, tert-Butyl (4-(3-(3-amino-3-oxopropyl)pyrazin-2-yl)-3-benzyl-2-fluorophenyl)carbamate], Cc1ccccc1C(=O)c1c(-c2cccnc2CNC(N)=O)ccc(NC(=O)OC(C)(C)C)c1F [Example E-1, tert-Butyl (2-fluoro-3-(2-methylbenzoyl)-4-(2-(ureidomethyl)pyridin-3-yl)phenyl)carbamate] is lower in IC50: 300 to 30000 nM for the first, less than 300 nM for the second. The second is the more potent here.

First: NC(=O)NCc1ncccc1-c1ccc(NC(=O)O[C@H]2C[C@H](F)C2)c(F)c1Cc1ccccc1F [Example A-5, trans-3-Fluorocyclobutyl (2-fluoro-3-(2-fluorobenzyl)-4-(2-(ureidomethyl)pyridin-3-yl)phenyl)carbamate]
Second: NC(=O)NCc1ncccc1-c1ccc(NC(=O)OC2CC2)c(F)c1Cc1ccccc1F [Example A-26, Cyclopropyl (2-fluoro-3-(2-fluorobenzyl)-4-(2-(ureidomethyl)pyridin-3-yl)phenyl)carbamate]
The IC50 of the first is lower: less than 300 nM for the first, 300 to 30000 nM for the second.

First: CC(C)(C)OC(=O)Nc1ccc(-c2cccnc2CNC(N)=O)c(C(=O)N2CCOCC2)c1F [Example F-8, tert-Butyl (2-fluoro-3-(morpholine-4-carbonyl)-4-(2-(ureidomethyl)pyridin-3-yl)phenyl)carbamate]
Second: CC(C)(C)OC(=O)Nc1ccc(-c2cccnc2CNC(N)=O)c(CC2CC2)c1F [Example F-9, tert-Butyl (3-(cyclopropylmethyl)-2-fluoro-4-(2-(ureidomethyl)pyridin-3-yl)phenyl)carbamate]
The IC50 of the first is higher: greater than 30000 nM for the first, 300 to 30000 nM for the second. The second is the more potent here.

CC(C)(C)OC(=O)Nc1ccc(-c2cccnc2CNC(N)=O)c(C(=O)c2ccccc2C(F)(F)F)c1F [Example E-2] and CC(C)(C)OC(=O)Nc1ccc(-c2cccnc2CNC(N)=O)c(CN2CC3CCC(C2)O3)c1F [Example F-7, tert-Butyl (3-((8-oxa-3-azabicyclo[3.2.1]octan-3-yl)methyl)-2-fluoro-4-(2-(ureidomethyl)pyridin-3-yl)phenyl)carbamate] fall in the same range of IC50: 300 to 30000 nM for the first, 300 to 30000 nM for the second.

First: CC(O)c1ncccc1-c1ccc(NC(=O)OC(C)(C)C)cc1Oc1ccccc1 (stereo not shown) [Example B-7, tert-Butyl (4-(2-(1-hydroxyethyl)pyridine-3-yl)-3-phenoxyphenyl)carbamate]
Second: CC(c1ccccc1)c1cc(NC(=O)OC(C)(C)C)ccc1-c1cccnc1/C=C/C(N)=O (stereo not shown) [Example A-11, tert-Butyl (E)-(4-(2-(3-amino-3-oxopropan-1-en-1-yl)pyridin-3-yl)-3-(1-phenylethyl)phenyl)carbamate]
The IC50 of the first is higher: greater than 30000 nM for the first, 300 to 30000 nM for the second. The second is the more potent here.

NC(=O)NCc1ncccc1-c1ccc(NC(=O)OC2CN3CCC2CC3)c(F)c1Cc1ccccc1F (stereo not shown) [Example A-29, (2-Fluoro-3-(2-fluorobenzyl)-4-(2-(ureidomethyl)pyridine-3-yl)phenyl)carbamate quinuclidine-3-yl] and N#Cc1ccccc1Cc1c(-c2cccnc2CNC(N)=O)ccc(NC(=O)OC2CC3CCC2CC3)c1F (stereo not shown) [Example A-38, Bicyclo[2.2.2]octan-2-yl (3-(2-cyanobenzyl)-2-fluoro-4-(2-(ureidomethyl)pyridin-3-yl)phenyl)carbamate] fall in the same range of IC50: 300 to 30000 nM for the first, 300 to 30000 nM for the second.

From EP4818158A1, “BIARYL COMPOUND” (Kissei Pharmaceutical Co., Ltd., priority 2023, dated 2025)
